Consider six molecules from ChEMBL document CHEMBL3244073, “1,2,4-Triazole amino nucleosides. 1-beta-D-3'-Amino-3'-deoxyribofuranosyl-1,2,4-triazole-3-carboxamide and related nucleosides” (1977).

Structures are written as SMILES. Activity calls are given as the source filed them. The calls are words filed in the database; no cut-off is given here.

The test deals with Vaccinia virus. Put plainly: Antiviral activity against Vaccinia virus Lederle Chorioallantoic assessed as inhibition of virus-induced cytopathogenicity. The format is functional, organism-based. The conditions noted are these: Orthopoxvirus vaccinia. (Cytopathic effects are the visible damage that an infection or toxin causes in cultured cells.)
As for `N/C(=N/O)c1ncn([C@@H]2O[C@H](CO)[C@@H](N)[C@H]2O)n1`, the outcome was inactive. To `N/N=C(/N)c1ncn([C@@H]2O[C@H](CO)[C@@H](N)[C@H]2O)n1` belongs “inactive”; to `NC(=O)c1ncn([C@@H]2O[C@H](CO)[C@@H](N)[C@H]2O)n1`, “inactive”. With `NC(=O)c1ncnn1[C@@H]1O[C@H](CO)[C@@H](N)[C@H]1O` the entry was “inactive”; with `N[C@H]1[C@@H](O)[C@H](n2cnc(C(=O)NO)n2)O[C@@H]1CO`, “inactive”; with `NNC(=O)c1ncn([C@@H]2O[C@H](CO)[C@@H](N)[C@H]2O)n1`, “inactive”.
